From patent publication US5202437A, “3-pyrrolidinylthio-1-azabicyclo(3.2.0)-hept-2-ene-2-carboxylic acid compounds” (Fujisawa Pharmaceutical Company, Ltd., priority 1988, dated 1993) come the findings set out here.

Converted amounts (≈) assume the structure as drawn.

This test concerns P. aeruginosa 26. Description: in vitro Antimicrobial Activity (two-fold agar-plate dilution method). The class given is cell-based. To be noted: Pseudomonas aeruginosa, heart infusion agar, 10^6 viable cells per ml, 37° C. for 20 hours, read-out: minimal inhibitory concentration (MIC). The method, then:
in vitro Antimicrobial Activity was determined by the two-fold agar-plate dilution method as described blow.
One loopful of an overnight culture of a test strain in Trypticase-soy broth (10^6 viable cells per ml) was streaked on heart infusion agar (HI-agar) containing graded concentrations of the test compound, and the minimal inhibitory concentration (MIC) was expressed in terms of μg/ml after incubation at 37° C. for 20 hours.
The compound of Example 2.

As for `C[C@@H](O)[C@H]1C(=O)N2C(C(=O)O)=C(S[C@@H]3CN[C@H](CN4CCNCC4)C3)[C@H](C)[C@H]12` [Example 2, (4R,5S,6S)-6-[(1R)-1-hydroxyethyl]-4-methyl-7-oxo-3-[(2S,4S)-2-(piperazin-1-yl)methylpyrrolidin-4-yl]thio-1-azabicyclo[3.2.0]hept-2-ene-2-carboxylic acid], the MIC is 0.39 µg/mL (≈ 0.95 µM).
